Values quoted from earlier work, collected in US20210322464A1 (priority 2020, published 2021).

Conditions: 1000 μg per day, constant syringe pump infusion for 14 days; cited from earlier work

Q: With `O=[Se](O)O` [sodium selenite] as the molecule, how does the adverse effects read?
A: No adverse effects
